According to US9067928B2 (Genentech, Inc., priority 2008, dated 2015):

Key:
[1] = system: Mcl-1-/- mouse embryonic fibroblasts (MEF); test: Cell viability assay for Mcl-1-/- mouse embryonic fibroblasts (CellTiter-Glo); format: cell-based; details: Fibroblast, 1% Fetal Bovine Serum, read-out: MEF Mcl-1-/- KO cell viability results (EC50)
Description: a. Cell Viability Assay for Mcl-1^−/− Mouse Embryonic Fibroblasts (MEF):
Neutralization of both […] and Mcl-1 anti-apoptotic proteins in normal cells is required before a cell undergoes apoptosis via the downstream Bax/Bak pathway See, Chen. L. et al. Mol. Cell (2005) 17, 393-403; Willis, S. N. et al. Genes Dev. (2005) 19, 1294-1305. A compound that only targets Bcl-xL should not affect normal cells, but could kill certain cancer cells if they rely more on Bcl-xL and less on other anti-apoptotic proteins, e.g. Mcl-1, for survival. To mirror this, compounds of the invention were tested for its effect on survival of wild type (wt) mouse embryo fibroblasts (MEFs), Bax/Bak double knockout (BB DKO) MEFs, MEFs that expressed Noxa, and MEFs that expressed Bad. Noxa specifically neutralizes Mcl-1. […] MEFs that express Noxa mirror cancer cell types that are reliant on Bcl-xL for survival and should be much more sensitive to killing by a Bcl-xL targeting compound than MEFs where both Bcl-xL and Mcl-1 are protective.
In this assay, Mcl-1^(−/−) cells were used to confirm that cell apoptosis in the presence of BH3 mimetic small molecules was due to predominantly Bcl-xL inactivation. This inactivation leaves Bax/Bak unconstrained and results in apoptosis. The […]-GLO Luminescent Cell Viability Assay is a homogeneous method of determining the number of viable cells in culture based on quantitation of the ATP present. The amount of ATP correlates with the presence of metabolically active cells such that following cell lysis the amount of ATP present is proportional to the amount of luminescence measured.
Mcl-1^(−/−) mouse embryonic fibroblasts (MEFs) are an adherent cell line prepared in house. MEFs were grown in Iwaki 75 cm^2 tissue culture flasks (cat #3123-075) with FMA media which consists of: • 89% DME Kelso • 10% heat-inactivated foetal calf serum (FCS) (Hyclone cat #SH30396.03) • 1% 10 mM asparagine (Fluka cat #11149) • 275 μl of a 1:2000 dilution of 2-mercaptoethanol is added to the final 500 ml volume of FMA (Sigma cat #M7522; diluted in MT-PBS)
FMA was stored at 4° C. and used at 37° C. MEFs were cultured in FMA media and harvested in MT-PBS and trypsin. For MEF cell viability assays, cells were seeded separately in plates with 10% FCS-FMA and 1% FCS-FMA. […]
Automated Systems that can be used in this assay include: 1) Multidrop—The MULTIDROP 384 (ThermoLabsystems) dispenser was used to dispense cells aseptically into the assay plates: 2) MiniTrak—The […] system from Perkin Elmer was used for titration of the compound plates; 3) Zymark—The ZYMARK SCICLONE ALH3000 System with 100 nL pintool head was used for compound addition to the cells; 4) EnVision—The ENVISION plate reader was used to measure the viability via the detection of the luminescence. […]

Bcl-xL = target: T1, Bcl-xL (Homo sapiens, UniProt Q07817); test: Alpha Screen Bcl-xL binding assay, competition with Bim26-mer; details: values listed in the order of Table 1; read-out: Alphascreen results (IC50)
T1 construct: made in house
Description: The measurement of competition of compounds of the invention with Bim26-mer for a Bcl-2 family protein binding site using an Alpha Screen Bcl-xL Binding Assay:
The BH3 proteins ALPHASCREEN™ assay was used to identify active small molecules Bcl-2 family protein screen. e.g., Bcl-xL, hmMcl-1 screen. To determine an accurate estimation of the IC50, the compounds were routinely tested at starting concentrations, 100 μM and/or 1 μM and serially titrated 3 fold over 11 dilutions.
The beads come in close proximity when the protein and the peptides interact. Donor beads contain a photosensitiser that converts oxygen to an excited form of O2 at an excitation of 680 nm. Energy is transformed from the singlet oxygen and reacts with chemiluminescers on the acceptor bead, resulting in light emission at 520-620 nm. […] With this information, the IC50 of each compound was calculated
GST-Bcl-xL, GST-hmMcl-1 and biotinylated GST proteins were prepared in-house and were stored as stock solutions at −80° C. The biotinylated-Bak, and biotinylated-Bim peptides were purchased from Auspep and were stored as 500 μM stock solutions in 100% DMSO at −80° C. The ALPHASCREEN™ GST (Glutathione-S-Transferase) Detection Kit was obtained from Perkin Elmer Lifesciences (Cat #6760603R). The Proxiplates, white 384 well flat-Bottom plates were purchased from Interpath Services, Melbourne (Cat #784075). The seals to cover the plates were purchased from Proscience. Melbourne (Cat#784075). DMSO was purchased from AnalaR. The 384 deep well plates and the Polypropylene 50 μL, V bottom polypropylene compound plates were purchased from Matrical.
Compounds of the invention were prepared as 10 mM stocks with 100% DMSO on the day prior to performing the assay. […] To achieve a final compound concentration of 1 μM, in a separate matrical plate, 28 μL of 100% DMSO and 2 μL of 10 mM compound was added to a well, mixed well. 2 μL of this solution was taken and added to 38 μL of 100% DMSO. 20 μL of this solution was added to the test matrical plate. Several control compounds were included in the test plates. For the control wells 15 μL 100% DMSO only was added to the appropriate wells of each plate. The compound plates were then serially diluted 2 fold using the MiniTrak. Once titrations were complete, the compound plate was immediately covered with a foil seal to prevent evaporation.
The assay and bead buffers were prepared fresh. Each titrated compound plate was assayed in duplicate. The following volumes were sufficient to run 12 Proxiplates (4 assay plates run in duplicate in each of Bclxl, hmMcl and counter assays)
Protein and Peptide Preparation; and Assay Performance • 1. The assay and bead buffers were used to prepare the acceptor and donor solutions. ALPHASCREEN™ beads are light sensitive and therefore prepared in a darkened room. 2.5 μL of beads were added per 1 mL of buffer. • 2. The volume of protein or peptide to add was calculated using the following formula:
[formula] • C1=Final Concentration of protein/peptide • C2=Stock Concentration of protein/peptide • V1=Total Volume of Acceptor/Donor Solution • V2=Volume of stock protein/Peptide to add to Acceptor/Donor solution • 3. The assay components were prepared as separate Acceptor and Donor Solutions. The Acceptor Solution contained Acceptor heads and target protein, while the Donor Solution contained Donor beads and biotinylated peptide.
• 4. After the solutions were prepared, they were left to incubate for 30 minutes at room temperature to allow the beads to bind to the protein and the peptide. • 5. 50 μL of Bcl-xL solution, 50 μL of hmMcl-1 solution and 50 µL of biotinylated-GST were added into separate deep wells on an assay plate. A control […]. Assay/Bead buffer was added separate well plates (no protein). • 6.

T1 sequence (Q07817 whole entry, species assumed): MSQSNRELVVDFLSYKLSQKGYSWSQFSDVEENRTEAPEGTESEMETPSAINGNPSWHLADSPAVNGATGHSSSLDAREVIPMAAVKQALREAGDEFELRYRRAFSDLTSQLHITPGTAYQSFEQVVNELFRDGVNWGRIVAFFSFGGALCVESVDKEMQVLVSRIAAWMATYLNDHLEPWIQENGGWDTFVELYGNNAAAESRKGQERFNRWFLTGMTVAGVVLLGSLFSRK

Row | IC50 (Bcl-xL) | Compound | EC50 [1]
1 | 0.006 µM | CC(C)Oc1ccc(-c2sc(-c3ccc4c(c3)N(C(=O)Nc3nc5ccccc5s3)CCC4)nc2C(=O)O)cc1 [Example 79, 2-(1-(benzo[d]thiazol-2-ylcarbamoyl)-1,2,3,4-tetrahydroquinolin-7-yl)-5-(4-isopropoxyphenyl)thiazole-4-carboxylic acid] | 0.21 µM
2 | 0.003 µM | O=C(O)c1nc(-c2ccc3c(c2)N(C(=O)Nc2nc4ccccc4s2)CCC3)sc1/C=C/c1ccccc1 [Example 74, (E)-2-(1-(benzo[d]thiazol-2-ylcarbamoyl)-1,2,3,4-tetrahydroquinolin-7-yl)-5-styrythiazole-4-carboxylic acid] | 0.06 µM
